Where two headings read alike, the source gives them in different places.
Key:
[1] = Plasma protein binding by equilibrium dialysis (rat); type: in vitro ADME, Sprague–Dawley rat; conditions: Sprague-Dawley
Experimental: (§1) The phosphate buffer (100 mM) and sodium hydroxide solution (1.0 M) were prepared in deionized water. […] PPB was determined by equilibrium dialysis method. An aliquot (150 μL) of NHPPC spiked plasma and phosphate buffer (pH 7.4) was added into the donor side and the receiver side of each designated well. The plate was covered with adhesive sealing film to prevent evaporation and placed in a water-bath shaker kept at 37°C for 6 h with a rate of 50 rpm. […] At the end of 6 h, aliquots were taken from each side of each well (n = 3) and kept in a −20°C freezer prior to analysis. The stability, device recovery and PPB were calculated using the following equations: Remaining at 6 h (%)=C6h/C0h×100%, Device recovery (%)=CDonor+CReceiver/C6h×100%, PPB (%)=CDonor−CReceiver/CDonor×100%.

rat plasma proteins = assay: as above; type: in vitro ADME, Sprague–Dawley rat; conditions: rat plasma, mean of 0.2 and 1 µM
Experimental: as §1

[2] = Plasma protein binding by equilibrium dialysis (dog); type: in vitro ADME, Beagle dog; conditions: beagle
Experimental: as §1

dog plasma proteins = assay: as above; type: in vitro ADME, Beagle dog; conditions: dog plasma, mean of 0.2 and 1 µM
Experimental: as §1

[3] = In vitro metabolic stability in dog liver microsomes; type: in vitro ADME; conditions: for remaining at 1 h, 1 µM: liver microsomes, pH 7.4, dog liver microsomes, 60 min, read-out: percent remaining
Experimental: The phosphate buffer (pH 7.4, 100 mM) and (300 mM) were prepared in deionized water. NADP and IA were dissolved in phosphate buffer and MgCl2 solution and then added 20 μL IDH (18 units/mg protein) and mixed. NHPPC (1 mM) and positive control drug were prepared by dilution using DMSO and then the NHPPC and positive control drug working solution (50 μM) were obtained by dilution using methanol: H2O (1:1, v/v) mixture. Pooled human, rat and dog liver microsomes were added to phosphate buffer pH7.4 to a concentration 20 mg/mL. NHPPC was incubated with liver microsomes. The incubation solution of the final reaction conditions contained 50 mM potassium phosphate buffer (pH 7.4), 0.5 mg protein/mL microsomes, 3 mM MgCl2, 2 mM NADPH and 1 μM NHPPC or positive control drug in a final volume of 100 μL. In sample and positive control groups, NADPH was added into the incubation solutions. In the negative control group, water (the replacement of NADPH) was added into the incubation solutions. Samples were incubated aerobically in a shaking water bath at 37°C and the reaction was terminated by adding 300 μL of ice cold acetonitrile (contain 100 ng/mL IS) at different interval 0, 5, 10, 20, 30 and 60 min. While positive control and negative control were incubated aerobically in a shaking water bath at 37°C for 0 and 60 min, respectively. NHPPC and control concentrations were determined by LC-MS/MS at each time point (n = 3). Calculation of t1/2 and CLint was performed by using following equations, where K is the elimination rate constant (min^−1) and QH is hepatic blood flow (mL/min/kg). t1/2=0.693/KCLint,in vitro=VD×KVD=Volume of reaction mixture(mL)/mg of protein per reation.
Hepatic intrinsic clearance was estimated by using the scaling factors and calculated by using the following equation (Lave et al. [1997]). CLint,in vivo=CLint×mg microsomal protein per liver×g liver per kg body weight, Cint,H=CLint,in vivo×QH/CLint,in vivo+QH,EH=CLint,H/QH.

[4] = In vivo pharmacokinetic study in rats; set-up: species or system male Sprague–Dawley rats; conditions: rat; for MRT inf: read-out: MRT0-∞
Experimental: For the iv experiment, male SD rats (n = 3) were given a single dose of NHPPC (1 mg/kg) over 1 min by dorsal venous arch of foot. Approximately 200 µL blood samples were collected at 5, 15, 30 min and 1, 2, 4, 6, 8 and 24 h post-dose via tail vein into heparinized (coated with 0.1% heparin in saline) tubes. For the oral experiments, the male rats (n = 3) were given a single dose of 2 mg/kg. Then the blood samples were collected at 10, 30 min and 1, 2, 4, 6, 8 and 24 h post-dose. Plasma was obtained after centrifugation at 8000 rpm for 6 min (4°C) within 10 min of blood-drawing and stored at –70°C until they were analyzed.
Data analysis including analyte/IS was acquired using Analyst version 1.6.1 software (AB SCIEX). All pharmacokinetic parameters (for example: K10, AUC0–t, AUC0-∞, Cmax, Tmax, t1/2, CL, Vss, MRT0–∞, etc.) were analyzed based on a non-compartmental model and using Pharsight WinNonlin version 6.3 (St. Louis, USA). The area under the concentration time curve (AUC0–t and AUC0–∞) was calculated by linear trapezoidal rule. The natural logarithms (Ln) of the fraction remaining against incubation times (min) was plotted and the first-order rate constant of turnover is determined by a linear regression model. The final results (for example: the mean, standard deviation, the remaining, device recovery, ke, bioavailability, etc.) were electronically exported into Excel 7.0 (Redmond, USA) for data processing and formatting.

[5] = In vivo pharmacokinetic study in dogs; set-up: species or system male Beagle dogs; conditions: dog; for MRT inf: read-out: MRT0-∞
[6] = male, Sprague-Dawley, plasma, IV 1 mg/kg
[7] = male, Sprague-Dawley, plasma, PO 2 mg/kg
[8] = male, Beagle, plasma, IV 1 mg/kg
[9] = male, Beagle, plasma, PO 1 mg/kg

For `COc1ccc(CNc2nc(N3CCC[C@H]3CO)ncc2C(=O)NCc2ccccn2)cc1Cl` [NHPPC, N-(2-pyridylmethyl)-2-hydroxiymethyl-1-pyrrolidinyl-4-(3-chloro-4-methoxy-benzylamino)-5-pyrimidine-carboxamide], the recovery at 6 h, 0.2 μM ([1]; pH 7.4, rat plasma, equilibrium dialysis, n = 3, read-out: Mean device recovery %) was 98.6 ± 0.13%, the fraction unbound at 6 h, 0.2 µM ([1]; rat, plasma, pH 7.4, rat plasma, 0.2 µM, equilibrium dialysis 6 h, read-out: Mean PPB % (converted)) was 0.043 and the fraction unbound at 6 h, 1 µM ([1]; rat, plasma, pH 7.4, rat plasma, 1 µM, equilibrium dialysis 6 h, read-out: Mean PPB % (converted)) was 0.033. The fraction unbound at 6 h ([1]; rat, plasma, pH 7.4, rat plasma, mean of 0.2 and 1 µM, read-out: Mean PPB %) was less than 0.05, the “Mean PPB %” value (rat plasma proteins) was 96.2 ± 0.18% and the fraction unbound at 6 h, 0.2 µM ([2]; dog, plasma, pH 7.4, dog plasma, 0.2 µM, equilibrium dialysis 6 h, read-out: Mean PPB % (converted)) was 0.008. For the same compound, the fraction unbound at 6 h, 1 µM ([2]; dog, plasma, pH 7.4, dog plasma, 1 µM, equilibrium dialysis 6 h, read-out: Mean PPB %) was 0.001 ± 3.8e-06, the recovery at 6 h, 0.2 μM ([2]; pH 7.4, dog plasma, equilibrium dialysis, n = 3, read-out: Mean device recovery %) was 95.7 ± 0.3% and the “Mean PPB %” value (dog plasma proteins) was 99.6 ± 0.26%. For the same compound, the remaining at 1 h, 1 µM ([3]; dog, in the presence of NADPH, 1 μM) was 0.8%, the remaining at 1 h, 1 µM ([3]; dog, without NADPH regenerating system) was 98.4% and the CLH ([3]; dog, scaled from liver microsomes) was 25.3 mL/min/kg. The half-life at 1 µM ([3]; liver microsomes (pooled), pH 7.4, dog liver microsomes) was 8.2 min, the microsomal CLint at 1 µM ([3]; liver microsomes (pooled), pH 7.4, dog liver microsomes, read-out: CLint, ivtro) was 120 µL/min/mg and the k el at 1 µM ([3]; pH 7.4, dog liver microsomes, read-out: Ke (converted)) was 0.0014 s⁻¹. It also gave an AUC(0-inf) [4, 6] of 866 ± 201 ng·h/mL, an AUC(0-t) [4, 6] of 847 ± 195 ng·h/mL and a clearance [4, 6] of 19.8 mL/min/kg. For the same compound, the half-life [4, 6] was 4.55 ± 0.11 h, the MRT inf [4, 6] was 5.5 ± 0.36 h and the Vd ([4]; male, Sprague-Dawley, plasma, IV 1 mg/kg, read-out: Vss) was 6.5 ± 1 L/kg. For the same compound, the AUC(0-inf) [4, 7] was 593 ± 137 ng·h/mL, the AUC(0-t) [4, 7] was 583 ± 135 ng·h/mL and the Cmax [4, 7] was 52.6 ± 12.9 ng/mL. It also gave a Tmax [4, 7] of 6 h, a half-life [4, 7] of 4.02 ± 0.39 h and an MRT inf [4, 7] of 7.8 ± 0.79 h. The K10 ([4]; IV 1 mg/kg) was 0.15 ± 0.00 h⁻¹, the K10 ([4]; PO 2 mg/kg) was 0.17 ± 0.02 h⁻¹ and the K10 ([5]; IV 1 mg/kg) was 0.52 ± 0.03 h⁻¹. It also gave a K10 ([5]; PO 1 mg/kg) of 0.45 ± 0.06 h⁻¹, a BA ([5]; PO 1 mg/kg vs IV 1 mg/kg, 1 mg/kg) of 53.1 ± 14.2% and an AUC(0-inf) [5, 8] of 685 ± 40 ng·h/mL. The AUC(0-t) [5, 8] was 679 ± 38.5 ng·h/mL, the clearance [5, 8] was 24.3 mL/min/kg and the half-life [5, 8] was 1.33 ± 0.06 h. For the same compound, the MRT inf [5, 8] was 1.15 ± 0.04 h, the Vd ([5]; male, Beagle, plasma, IV 1 mg/kg, read-out: Vss) was 1.68 ± 0.08 L/kg and the AUC(0-inf) [5, 9] was 364 ± 97.4 ng·h/mL. It also gave an AUC(0-t) [5, 9] of 351 ± 96.1 ng·h/mL, a Cmax [5, 9] of 144 ± 35.3 ng/mL and a Tmax [5, 9] of 0.5 h. It also gave a half-life [5, 9] of 1.57 ± 0.22 h, an MRT inf [5, 9] of 2.54 ± 0.15 h and a Tmax ([5]; male, beagle, plasma, PO 1 mg/kg) of 0.5 to 1 h.
